Experimental data taken from US11142515B2, “Pyrazolyl-ureas as kinase inhibitors” (RESPIVERT LIMITED, priority 2014, dated 2021).

How the values were obtained:
[1] = molecular target: T1, Hck (Homo sapiens, UniProt P08631); experiment: Hck enzyme inhibition (Z-LYTE FRET); type: biochemical; details: Table 2A
T1 construct: purchased Life Technologies
Protocol: (§1) The enzyme inhibitory activities of compounds disclosed herein were determined by FRET using synthetic peptides labelled with both donor and acceptor fluorophores (Z-LYTE, Life Technologies, Paisley, UK).
(§2) The relevant enzyme (1000 ng/mL, 1400 ng/mL or 2000 ng/mL respectively, 2.5 μL) was incubated with the test compound (either 40 μg/mL, 12 μg/mL, 4 μg/mL, 1.2 μg/mL, 0.4 μg/mL, 0.12 μg/mL, 0.04 μg/mL, 0.012 μg/mL, 0.004 μg/mL or 0.0012 μg/mL, 2.5 μL each) for 2 h at RT. The FRET peptides (8 μM, 2.5 μL), and appropriate ATP solutions (2.5 μL, 800 μM for c-Src, and 60 μM ATP for HCK and Syk) were then added to the enzyme/compound mixtures and incubated for 1 h at RT. Development reagent (protease, 5 μL) was added for 1 h prior to detection in a fluorescence microplate reader (EnVision, Perkin Elmer).
(§3) In all cases, the site-specific protease cleaves non-phosphorylated peptide only and eliminates the FRET signal. Phosphorylation levels of each reaction were calculated using the ratio of coumarin emission (donor) over fluorescein emission (acceptor), for which low ratios indicate high phosphorylation and high ratios indicate low phosphorylation levels.

[2] = test system: ICAM-1 expression in BEAS2B cells; experiment: Poly I:C-induced ICAM-1 expression in BEAS2B cells; type: cell-based; details: Homo sapiens, BEAS-2B, read-out: PolyIC/ICAM1 IC50 (BEAS2B)
Protocol: Poly I:C was used in these studies as a simple, RNA virus mimic. Poly I:C-Oligofectamine mixture (2% Oligofectamine±1 μg/mL Poly I:C, 25 μL; Life Technologies and Invivogen Ltd., San Diego, Calif., respectively) was transfected into BEAS2B cells (human bronchial epithelial cells, ATCC). Cells were pre-incubated with final concentrations of test compounds for 2 h and the level of ICAM-1 expression on the cell surface was determined by cell-based ELISA. At a time point 18 h after poly I:C transfection, cells were fixed with 4% formaldehyde in PBS (100 μL) and then endogenous peroxidase was quenched by the addition of washing buffer (100 μL, 0.05% Tween in PBS: PBS-Tween) containing 0.1% sodium azide and 1% hydrogen peroxide. Cells were washed with wash-buffer (3×200 μL). After blocking the wells with 5% milk in PBS-Tween (100 μL) for 1 h, the cells were incubated with anti-human ICAM-1 antibody (50 μL; Cell Signaling Technology, Danvers, Mass.) in 1% BSA PBS overnight at 4° C.
The cells were washed with PBS-Tween (3×200 μL) and incubated with the secondary antibody (100 μL; HRP-conjugated anti-rabbit IgG, Dako Ltd., Glostrup, Denmark). The cells were then incubated with of substrate (50 μL) for 2-20 min, followed by the addition of stop solution (50 μL, 1N H2SO4). The ICAM-1 signal was detected by reading the absorbance at 450 nm against a reference wavelength of 655 nm using a spectrophotometer. The cells ware then washed with PBS-Tween (3×200 μL) and total cell numbers in each well were determined by reading absorbance at 595 nm after Crystal Violet staining (50 μL of a 2% solution in PBS) and elution by 1% SDS solution (100 μL) in PBS. The measured OD 450-655 readings were corrected for cell number by dividing with the OD595 reading in each well. The inhibition of ICAM-1 expression was calculated at each concentration of test compound by comparison with vehicle control.

[3] = test system: IL-8 release in d-U937 cells; experiment: LPS-induced IL-8 release in d-U937 cells; type: cell-based; details: Homo sapiens, dU937, LPS 0.1 μg/mL 4 h
Protocol: U937 cells, a human monocytic cell line, were differentiated into macrophage-type cells by incubation with PMA (100-200 ng/mL) for 48 to 72 h. Cells were pre-incubated with final […] concentrations of test compound for 2 h and were then stimulated with LPS (0.1 μg/mL; from E. coli: O111:B4, Sigma) for 4 h. The supernatant was collected for determination of TNFα and IL-8 concentrations by sandwich ELISA (Duo-set, R&D systems). […] The relative 50% effective concentration (REC50) was determined from the resultant concentration-response curve. The inhibition of IL-8 production was calculated at each concentration of test compound by comparison with vehicle control.

[4] = molecular target: T2, GSK 3α enzyme isoform (Homo sapiens, UniProt P49840); experiment: GSK 3α enzyme inhibition (Z-LYTE FRET); type: biochemical; details: Table 2A; read-out: IC50 Values for Enzyme Inhibition GSK3α
T2 construct: purchased Life Technologies
T2 sequence (P49840 whole entry, canonical isoform): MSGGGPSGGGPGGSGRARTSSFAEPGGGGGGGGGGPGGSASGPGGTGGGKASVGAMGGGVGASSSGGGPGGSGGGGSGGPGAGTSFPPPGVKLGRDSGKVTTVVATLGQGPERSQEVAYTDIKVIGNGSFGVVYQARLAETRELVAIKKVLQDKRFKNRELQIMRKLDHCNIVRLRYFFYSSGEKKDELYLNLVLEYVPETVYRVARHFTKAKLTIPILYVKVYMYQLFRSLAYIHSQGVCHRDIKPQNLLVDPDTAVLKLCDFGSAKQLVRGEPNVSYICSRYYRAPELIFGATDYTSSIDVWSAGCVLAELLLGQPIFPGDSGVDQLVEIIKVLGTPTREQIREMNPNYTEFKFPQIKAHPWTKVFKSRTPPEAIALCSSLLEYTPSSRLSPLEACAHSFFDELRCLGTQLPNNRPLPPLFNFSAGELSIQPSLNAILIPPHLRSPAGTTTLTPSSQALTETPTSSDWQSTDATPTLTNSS
In short: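 Z-LYTE FRET kinase assay: GSK3α protein (500 ng/mL stock) preincubated with compound (0.0012–40 μg/mL stocks) for 2 h at RT. FRET peptide (8 μM stock) and ATP (40 μM stock) added for 1 h at RT, then protease development for 1 h. Phosphorylation taken from the coumarin/fluorescein emission ratio.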

[5] = molecular target: T3, c-Src (Homo sapiens, UniProt P12931); experiment: c-Src enzyme inhibition (Z-LYTE FRET); type: biochemical; details: Table 2A
T3 construct: purchased Life Technologies
T3 sequence (P12931 whole entry): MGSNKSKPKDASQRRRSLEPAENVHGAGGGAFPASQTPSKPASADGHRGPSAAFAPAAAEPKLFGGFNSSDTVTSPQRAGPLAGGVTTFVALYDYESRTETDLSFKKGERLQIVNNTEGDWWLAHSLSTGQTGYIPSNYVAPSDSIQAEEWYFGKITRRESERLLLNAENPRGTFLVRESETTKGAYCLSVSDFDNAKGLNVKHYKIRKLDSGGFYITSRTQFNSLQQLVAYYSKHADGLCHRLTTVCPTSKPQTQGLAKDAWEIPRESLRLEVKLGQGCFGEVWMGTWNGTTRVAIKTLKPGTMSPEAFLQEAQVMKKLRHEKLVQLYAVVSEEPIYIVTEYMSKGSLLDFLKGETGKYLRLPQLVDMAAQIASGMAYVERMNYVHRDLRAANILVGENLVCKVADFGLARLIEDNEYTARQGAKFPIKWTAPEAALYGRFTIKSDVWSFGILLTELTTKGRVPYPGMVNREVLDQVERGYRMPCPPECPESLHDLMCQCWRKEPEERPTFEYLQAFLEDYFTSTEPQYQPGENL
Protocol: as §1, §2, §3

[6] = molecular target: T4, p38 MAPKα isoform (MAPK14) (Homo sapiens, UniProt Q16539); experiment: p38 MAPKα enzyme inhibition (Z-LYTE FRET); type: biochemical; details: Table 2A; read-out: IC50 Values for Enzyme Inhibition p38 MAPKα
T4 construct: purchased Life Technologies
T4 sequence (Q16539 whole entry, canonical isoform): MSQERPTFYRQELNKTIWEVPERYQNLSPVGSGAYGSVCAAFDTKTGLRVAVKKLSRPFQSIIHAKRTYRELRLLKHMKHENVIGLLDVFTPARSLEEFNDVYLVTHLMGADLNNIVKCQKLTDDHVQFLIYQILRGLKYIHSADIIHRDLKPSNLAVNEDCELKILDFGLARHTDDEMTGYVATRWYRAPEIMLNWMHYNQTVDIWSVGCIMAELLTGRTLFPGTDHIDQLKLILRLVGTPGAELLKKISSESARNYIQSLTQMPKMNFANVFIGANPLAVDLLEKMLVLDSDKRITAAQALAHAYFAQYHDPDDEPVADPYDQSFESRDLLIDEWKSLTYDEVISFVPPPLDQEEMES
In short: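 Recombinant human MAPK14 (40 ng/mL stock) was preincubated 2 h at RT with compound (stock dilutions 0.0012-40 μg/mL). The Z-LYTE FRET read-out used a MAPKAP-K2-derived peptide, and protease development for 1 h cleaved only non-phosphorylated peptide. Phosphorylation was calculated from the coumarin/fluorescein emission ratio.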

T1 sequence (P08631 22-526): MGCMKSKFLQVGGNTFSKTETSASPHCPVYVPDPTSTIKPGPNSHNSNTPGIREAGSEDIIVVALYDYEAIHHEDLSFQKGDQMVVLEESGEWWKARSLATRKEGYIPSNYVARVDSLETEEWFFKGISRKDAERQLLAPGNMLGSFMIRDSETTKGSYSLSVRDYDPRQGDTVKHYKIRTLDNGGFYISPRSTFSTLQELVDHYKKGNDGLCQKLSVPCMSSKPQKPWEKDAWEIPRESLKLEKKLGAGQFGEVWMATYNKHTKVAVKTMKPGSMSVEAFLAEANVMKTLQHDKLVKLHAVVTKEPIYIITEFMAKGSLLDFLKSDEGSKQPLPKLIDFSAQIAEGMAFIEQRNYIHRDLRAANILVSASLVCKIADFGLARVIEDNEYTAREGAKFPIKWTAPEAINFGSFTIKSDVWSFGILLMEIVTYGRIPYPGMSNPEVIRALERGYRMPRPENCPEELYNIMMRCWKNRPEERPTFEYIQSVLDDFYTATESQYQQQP

Row | SMILES | IC50 [1] [µM] | IC50 [2] [µM] | IC50 [3] [µM] | IC50 [4] [µM] | IC50 [5] [µM] | IC50 [6] [µM]
1 | Cc1ccc(-n2nc(C(C)(C)C)cc2NC(=O)Nc2ccc(OCc3ccnc(Nc4cnc(C(=O)N(C)C)cn4)c3)c3ccccc23)cc1 [Example 9, 5-((4-(((4-(3-(3-(tert-Butyl)-1-(p-tolyl)-1H-pyrazol-5-yl)ureido)naphthalen-1-yl)oxy)methyl)pyridin-2-yl)amino)-N,N-dimethylpyrazine-2-carboxamide] | 1.5 | 0.0725 | 0.0088 | 3.32 | 2.51 | 0.134
2 | CNC(=O)c1cnc(Nc2cc(COc3ccc(NC(=O)Nc4cc(C(C)(C)C)nn4-c4ccc(C)cc4)c4ccccc34)ccn2)cn1 [Example 7, 5-((4-(((4-(3-(3-(tert-Butyl)-1-(p-tolyl)-1H-pyrazol-5-yl)ureido)naphthalen-1-yl)oxy)methyl)pyridin-2-yl)amino)-N-methylpyrazine-2-carboxamide] | 0.064 | > 1.53 | 0.0167 | > 15.2 | 0.358 | 0.015
3 | COCCNC(=O)c1cnc(Nc2cc(COc3ccc(NC(=O)Nc4cc(C(C)(C)C)nn4-c4ccc(C)cc4)c4ccccc34)ccn2)cn1 [Example 3] | 0.066 | 0.46 | 0.0088 | > 14.3 | 0.144 | 0.009
4 | Cc1ccc(-n2nc(C(C)(C)C)cc2NC(=O)Nc2ccc(OCc3ccnc(Nc4cnc(C(=O)N5CCCC5)cn4)c3)c3ccccc23)cc1 [Example 36] | 0.048 | 0.188 | 0.0028 | > 13.8 | 0.061 | 0.019
5 | Cc1ccc(-n2nc(C(C)(C)C)cc2NC(=O)Nc2ccc(OCc3ccnc(Nc4cncc(C5CCC5)n4)c3)c3ccccc23)cc1 [Example 47] | 0.11 | 0.151 | 0.0156 | 2.8 | 0.402 | 0.087
6 | CNC(=O)Cc1cnc(Nc2cc(COc3ccc(NC(=O)Nc4cc(C(C)(C)C)nn4-c4ccc(C)cc4)c4ccccc34)ccn2)cn1 [Example 33] | 0.011 | 0.15 | 0.0424 | 5.96 | 0.035 | 0.003
7 | Cc1ccc(-n2nc(C(C)(C)C)cc2NC(=O)Nc2ccc(OCc3ccnc(Nc4cncc(CC(N)=O)n4)c3)c3ccccc23)cc1 [Example 32] | 0.007 | 0.0656 | 0.015 | 1.32 | 0.025 | 0.003
8 | CCc1cnc(Nc2cc(COc3ccc(NC(=O)Nc4cc(C(C)(C)C)nn4-c4ccc(C)cc4)c4ccccc34)ccn2)cn1 [Example 37] | 0.142 | 0.611 | 0.0193 | > 10 | 0.512 | 0.024
9 | CC(=O)NCc1cnc(Nc2cc(COc3ccc(NC(=O)Nc4cc(C(C)(C)C)nn4-c4ccc(C)cc4)c4ccccc34)ccn2)cn1 [Example 6, N-((5-((4-(((4-(3-(3-(tert-butyl)-1-(p-tolyl)-1H-pyrazol-5-yl)ureido)naphthalen-1-yl)oxy)methyl)pyridin-2-yl)amino)pyrazin-2-yl)methyl)acetamide] | 0.01 | 0.0524 | 0.0907 | 0.922 | 0.024 | 0.003
10 | Cc1cc(-n2nc(C(C)(C)C)cc2NC(=O)Nc2ccc(OCc3ccnc(Nc4cnccn4)c3)c3ccccc23)cs1 (single isomer, unassigned) [Example 31] | 0.059 | 0.874 | 0.0334 | 11.3 | 0.154 | 0.004
11 | Cc1ccc(-n2nc(C(C)(C)C)cc2NC(=O)Nc2ccc(OCc3ccnc(Nc4cnc(CC(=O)N(C)C)cn4)c3)c3ccccc23)cc1 [Example 29] | 0.01 | 0.043 | 0.0085 | 0.207 | 0.028 | 0.005
12 | Cc1ccc(-n2nc(C(C)(C)C)cc2NC(=O)Nc2ccc(OCc3ccnc(Nc4cnc(C)cn4)c3)c3ccccc23)cc1 [Example 19] | 0.053 | 0.34 | 0.0014 | > 16.3 | 0.151 | 0.013
13 | Cc1ccc(-n2nc(C(C)(C)C)cc2NC(=O)Nc2ccc(OCc3ccnc(Nc4cncc(C)n4)c3)c3ccccc23)cc1 [Example 20] | 0.052 | 0.152 | 0.0013 | 9.04 | 0.15 | 0.015
